system: corn; experiment: Test Example 1, foliar treatment, phytotoxicity to corn; format: in vivo; settings: 1.25 g/are, 3 weeks; further: ranges in brackets are in %
Procedure: (§1) The application of the tetrahydrophthalimides (I) as herbicides will be illustratively shown in the following Examples wherein the phytotoxicity to cultivated plants and the herbicidal activity on weeds were evaluated as follows: the aerial parts of the test plants were cut off and weighed (fresh weight); the percentage of the fresh weight of the treated plant to that of the untreated plant was calculated with the latter fresh weight taken as 100; and the crop damage and the herbicidal activity were evaluated by the standard given in the table below. The rating values of phytotoxicity, 0 and 1, and those of herbicidal effect, 5 and 4, are generally regarded as satisfactory to protect cultivated plants and control weeds, respectively. The rating values in the paddy field test alone were calculated from the dry weight of the test plants.
(§2) Plastic beakers (diameter, 10 cm; height, 10 cm) were filled with upland field soil, and the seeds of corn, barnyardgrass, wild oat, wild mustard and velvetleaf were separately sown in the beakers and grown for 2 weeks in the greenhouse. A designed amount of the test compound was sprayed to the foliage of the test plants by means of a small hand sprayer. After the spraying, the test plants were further grown for 3 weeks in the greenhouse, and herbicidal activity was examined. In this foliar treatment, the test compounds were formulated into an emulsifiable concentrate according to Preparation Example 2 and applied at a spray volume of 5 liters per are by dispersing it in water with the addition of a spreading agent.
Wherever Herbicidal activity, Velvetleaf is given: ranges in brackets are in %.

Row | SMILES | Phytotoxicity, Corn
1 | CCOc1cc(N2C(=O)C3=C(CCCC3)C2=O)c(F)cc1Cl [compound 2] | 0 (100)

same assay, conditions: 5 g/are, 3 weeks

Row | SMILES | Phytotoxicity, Corn
2 | CCOc1cc(N2C(=O)C3=C(CCCC3)C2=O)c(F)cc1Cl [compound 2] | 1 (90-99)

system: barnyardgrass; experiment: Test Example 1, foliar treatment, herbicidal activity; format: in vivo, Echinochloa crus-galli; settings: 1.25 g/are, 3 weeks; further: ranges in brackets are in %
Procedure: as §1, §2

Row | SMILES | Herbicidal activity, Barnyardgrass
3 | CCOc1cc(N2C(=O)C3=C(CCCC3)C2=O)c(F)cc1Cl [compound 2] | 3 (11-20)

same assay, conditions: 5 g/are, 3 weeks

Row | SMILES | Herbicidal activity, Barnyardgrass
4 | CCOc1cc(N2C(=O)C3=C(CCCC3)C2=O)c(F)cc1Cl [compound 2] | 5 (0)

system: wild oat; experiment: as above; format: in vivo, Avena fatua; settings: 1.25 g/are, 3 weeks; further: ranges in brackets are in %
Procedure: as §1, §2

Row | SMILES | Herbicidal activity, Wild cat
5 | CCOc1cc(N2C(=O)C3=C(CCCC3)C2=O)c(F)cc1Cl [compound 2] | 3 (11-20)

same assay, conditions: 5 g/are, 3 weeks

Row | SMILES | Herbicidal activity, Wild cat
6 | CCOc1cc(N2C(=O)C3=C(CCCC3)C2=O)c(F)cc1Cl [compound 2] | 5 (0)

system: wild mustard; experiment: as above; format: in vivo, Brassica kaber; settings: 1.25 g/are, 3 weeks
Procedure: as §1, §2

Row | SMILES | Herbicidal activity, Wild mustard
7 | CCOc1cc(N2C(=O)C3=C(CCCC3)C2=O)c(F)cc1Cl [compound 2] | 5 (0)

same assay, conditions: 5 g/are, 3 weeks

Row | SMILES | Herbicidal activity, Wild mustard
8 | CCOc1cc(N2C(=O)C3=C(CCCC3)C2=O)c(F)cc1Cl [compound 2] | 5 (0)

system: velvetleaf; experiment: as above; format: in vivo, Abutilon theophrasti; settings: 1.25 g/are, 3 weeks
Procedure: as §1, §2

Row | SMILES | Herbicidal activity, Velvetleaf
9 | CCOc1cc(N2C(=O)C3=C(CCCC3)C2=O)c(F)cc1Cl [compound 2] | 5 (0)

same assay, conditions: 5 g/are, 3 weeks

Row | SMILES | Herbicidal activity, Velvetleaf
10 | CCOc1cc(N2C(=O)C3=C(CCCC3)C2=O)c(F)cc1Cl [compound 2] | 5 (0)

system: corn; experiment: Test Example 3, soil surface spraying, phytotoxicity to corn; format: in vivo; settings: 5 g/are, 20 days; further: ranges in brackets are in %
Procedure: as §1
(§3) Plastic trays (35 cm×25 cm×15 cm) were filled with upland field soil, and the seeds of tall morningglory, velvetleaf and sicklepod and the seeds of corn were sown therein. A designed amount of the test compounds formulated into a wettable powder according to Preparation Example 1 was dispersed in water and applied by spraying at a spray volume of 5 liters per are to the whole surface of the soil. After the spraying, the test plants were placed in a greenhouse and grown for 20 days, and herbicidal activity and phytotoxicity were examined.

Row | SMILES | Phytotoxicity, Corn
11 | CCOc1cc(N2C(=O)C3=C(CCCC3)C2=O)c(F)cc1Cl [compound 2] | 0 (100)

same assay, conditions: 10 g/are, 20 days

Row | SMILES | Phytotoxicity, Corn
12 | CCOc1cc(N2C(=O)C3=C(CCCC3)C2=O)c(F)cc1Cl [compound 2] | 0 (100)

system: tall morningglory; experiment: Test Example 3, soil surface spraying, herbicidal activity; format: in vivo, Ipomoea purpurea; settings: 5 g/are, 20 days; further: ranges in brackets are in %
Procedure: as §1, §3

Row | SMILES | Herbicidal activity, Tall morningglory
13 | CCOc1cc(N2C(=O)C3=C(CCCC3)C2=O)c(F)cc1Cl [compound 2] | 4 (1-10)

same assay, conditions: 10 g/are, 20 days

Row | SMILES | Herbicidal activity, Tall morningglory
14 | CCOc1cc(N2C(=O)C3=C(CCCC3)C2=O)c(F)cc1Cl [compound 2] | 4 (1-10)

system: sicklepod; experiment: as above; format: in vivo, Cassia obtusifolia; settings: 5 g/are, 20 days; further: ranges in brackets are in %
Procedure: as §1, §3

Row | SMILES | Herbicidal activity, Sicklepod
15 | CCOc1cc(N2C(=O)C3=C(CCCC3)C2=O)c(F)cc1Cl [compound 2] | 4 (1-10)

same assay, conditions: 10 g/are, 20 days

Row | SMILES | Herbicidal activity, Sicklepod
16 | CCOc1cc(N2C(=O)C3=C(CCCC3)C2=O)c(F)cc1Cl [compound 2] | 5 (0)

system: velvetleaf; experiment: as above; format: in vivo, Abutilon theophrasti; settings: 5 g/are, 20 days
Procedure: as §1, §3

Row | SMILES | Herbicidal activity, Velvetleaf
17 | CCOc1cc(N2C(=O)C3=C(CCCC3)C2=O)c(F)cc1Cl [compound 2] | 5 (0)

same assay, conditions: 10 g/are, 20 days

Row | SMILES | Herbicidal activity, Velvetleaf
18 | CCOc1cc(N2C(=O)C3=C(CCCC3)C2=O)c(F)cc1Cl [compound 2] | 5 (0)

system: corn; experiment: Test Example 4, pre-emergence treatment, phytotoxicity to corn; format: in vivo; settings: 2.5 g/are, 20 days; further: ranges in brackets are in %
Procedure: as §1
(§4) Plastic beakers (diameter, 10 cm; height, 10 cm) were filled with upland field soil, and the seeds of corn, cotton and soybean and the seeds of morningglory, velvetleaf, Johnsongrass and green foxtail were separately sown in the beakers. A designed amount of the test compound was sprayed over the top by means of a small hand sprayer. After the spraying, the test plants were grown for 20 days in the greenhouse, and herbicidal activity and phytotoxicity were examined. In this pre-emergence treatment, the test compounds were formulated into an emulsifiable concentrate according to Preparation Example 2 and applied at a spray volume of 5 liters per are by dispersing it in water with the addition of a spreading agent.

Row | SMILES | Phytotoxicity, Corn
19 | CCOc1cc(N2C(=O)C3=C(CCCC3)C2=O)c(F)cc1Cl [compound 2] | 0 (100)

same assay, conditions: 10 g/are, 20 days

Row | SMILES | Phytotoxicity, Corn
20 | CCOc1cc(N2C(=O)C3=C(CCCC3)C2=O)c(F)cc1Cl [compound 2] | 1 (90-99)

system: cotton; experiment: Test Example 4, pre-emergence treatment, phytotoxicity to cotton; format: in vivo; settings: 2.5 g/are, 20 days; further: ranges in brackets are in %
Procedure: as §1, §4

Row | SMILES | Phytotoxicity, Cotton
21 | CCOc1cc(N2C(=O)C3=C(CCCC3)C2=O)c(F)cc1Cl [compound 2] | 0 (100)

same assay, conditions: 10 g/are, 20 days

Row | SMILES | Phytotoxicity, Cotton
22 | CCOc1cc(N2C(=O)C3=C(CCCC3)C2=O)c(F)cc1Cl [compound 2] | 0 (100)

system: soybean; experiment: Test Example 4, pre-emergence treatment, phytotoxicity to soybean; format: in vivo; settings: 2.5 g/are, 20 days; further: ranges in brackets are in %
Procedure: as §1, §4

Row | SMILES | Phytotoxicity, Soybean
23 | CCOc1cc(N2C(=O)C3=C(CCCC3)C2=O)c(F)cc1Cl [compound 2] | 0 (100)

same assay, conditions: 10 g/are, 20 days

Row | SMILES | Phytotoxicity, Soybean
24 | CCOc1cc(N2C(=O)C3=C(CCCC3)C2=O)c(F)cc1Cl [compound 2] | 0 (100)

system: morningglory; experiment: Test Example 4, pre-emergence treatment, herbicidal activity; format: in vivo; settings: 2.5 g/are, 20 days; further: ranges in brackets are in %
Procedure: as §1, §4

Row | SMILES | Herbicidal activity, Morningglory
25 | CCOc1cc(N2C(=O)C3=C(CCCC3)C2=O)c(F)cc1Cl [compound 2] | 4 (1-10)

same assay, conditions: 10 g/are, 20 days

Row | SMILES | Herbicidal activity, Morningglory
26 | CCOc1cc(N2C(=O)C3=C(CCCC3)C2=O)c(F)cc1Cl [compound 2] | 4 (1-10)

system: velvetleaf; experiment: as above; format: in vivo, Abutilon theophrasti; settings: 2.5 g/are, 20 days
Procedure: as §1, §4

Row | SMILES | Herbicidal activity, Velvetleaf
27 | CCOc1cc(N2C(=O)C3=C(CCCC3)C2=O)c(F)cc1Cl [compound 2] | 5 (0)

same assay, conditions: 10 g/are, 20 days

Row | SMILES | Herbicidal activity, Velvetleaf
28 | CCOc1cc(N2C(=O)C3=C(CCCC3)C2=O)c(F)cc1Cl [compound 2] | 5 (0)

system: Johnsongrass; experiment: as above; format: in vivo, Sorghum halepense; settings: 2.5 g/are, 20 days; further: ranges in brackets are in %
Procedure: as §1, §4

Row | SMILES | Herbicidal activity, Johnsongrass
29 | CCOc1cc(N2C(=O)C3=C(CCCC3)C2=O)c(F)cc1Cl [compound 2] | 4 (1-10)

same assay, conditions: 10 g/are, 20 days

Row | SMILES | Herbicidal activity, Johnsongrass
30 | CCOc1cc(N2C(=O)C3=C(CCCC3)C2=O)c(F)cc1Cl [compound 2] | 5 (0)

system: green foxtail; experiment: as above; format: in vivo, Setaria viridis; settings: 2.5 g/are, 20 days; further: ranges in brackets are in %
Procedure: as §1, §4

Row | SMILES | Herbicidal activity, Green foxtail
31 | CCOc1cc(N2C(=O)C3=C(CCCC3)C2=O)c(F)cc1Cl [compound 2] | 4 (1-10)

same assay, conditions: 10 g/are, 20 days

Row | SMILES | Herbicidal activity, Green foxtail
32 | CCOc1cc(N2C(=O)C3=C(CCCC3)C2=O)c(F)cc1Cl [compound 2] | 5 (0)
